{
  "source": "patent US20230106102A1",
  "about": "“METHOD OF PRODUCING TRICHODESMA KHASIANUM CLARKE LEAF EXTRACTS AND APPLICATION OF THE SAME” (BAI-CHUNG-REN Foodstuff.Co.Ltd, priority 2021, published 2023)",
  "assay_type_in_all_cases": "in vivo",
  "key": {"[1]": {"assay": "Calorie intake, alcohol intake and body weight of mice fed alcohol liquid diet", "conditions": "for Body weight: RA group", "procedure": "In the design of this study, male mice of C57BL/6J strain are eight weeks old and are pre-bred for two weeks before starting the experiment to allow the animals to adapt to the environment, and observe whether the animals are abnormal daily. Raising at a relative humidity of 60%, 23±1° C., 12-hour light cycle (8:00-20:00), unlimited feed and water for rodents. The establishment and experimental grouping of liver injury and fatigue model animals. The trichodesma khasianum […] extract powders explore the effect of alcohol liquid diet on fatty liver and liver damage in mice, male mice of the C57BL/6J strain of 8 weeks old, are given special diet for experimental animals (Laboratory Rodent Diet) during the 2 week adaptation period. After one week, the body weight reached 20g, and the group is tested and started to be fed with standard alcoholic liquid model feed (Lieber-DeCarli Regular Control (DYET#710027)) or ethanol feed (Ethanol Diet (DYET#710260)), food and water are not restricted. The test is carried out for six weeks. The test substance is given a fixed daily dose by tube feeding. The dosage conversion refers to the US Food and Drug Administration announcement (US FDA, 2005), based on a 60 kg adult, the recommended daily body weight per kg 12.3 times the intake is the dose for mice. The animal experiment is divided into five groups, and each group has 8 mice, so there are […] mice, including normal group (NOR group), alcohol group (ALD group), low dose of the trichodesma khasianum […] extract powder (TL group) and high dose group of the trichodesma khasianum […] extract powder (TH group), and rosmarinic acid group (RA group). The recommended daily intake of the trichodesma khasianum […] extract powders are 2 g per day. After the animal experiment dose is converted, the one-time dose is […], and the […]-time dose is 0.82 g/kg. After fasting for 12 hours, the experimental animals are sacrificed by carbon dioxide asphyxiation, and blood and liver tissues are collected. After the blood is centrifuged, the serum is collected for biochemical analysis. The surface of the tissue is cleaned with saline solution, dried with a paper towel and weighed, then the tissue of the second largest leaf of the liver is cut and placed in a tissue embedding basin soaked in 10% formalin for paraffin embedding and sectioning so as to have tissue staining analysis. Finally, all remained livers are cleaned internally with 0.9% saline and stored in a -80° C. refrigerator for later use. The aforementioned test items of liver function in serum are aspartate aminotransferase (AST), alanine aminotransferase (ALT) and alkaline phosphatase (ALP) which are tested by using biochemical automatic analyzer (Beckman-700, Fullerton, Calif., USA). The test items of a concentration of lipid in blood are total cholesterol (TC) and triglyceride (TG) in serum, wherein a concentration of the total cholesterol is analyzed by using commercially available biochemical reagents (BXC 0261, Fortress), and a concentration of the biochemical reagents (BXC 0271, Fortress) is analyzed by triglyceride. The test items of a concentration of liver lipid are total cholesterol and triglycerides, wherein a concentration of the total cholesterol of the liver lipid is analyzed by using commercially available biochemical reagents (BXC 0261, Fortress), and a concentration of the biochemical reagents (BXC 0271, Fortress) of the liver lipid is analyzed by triglyceride. A production of lipid peroxide malondialdehyde (MDA) is determined by way of thiobarbituric acid (thiobarbituric acid) color method, wherein the more the product of lipid peroxide malondialdehyde is, the higher the absorbance value produces. Therefore, when the sample is capable of reducing the absorbance value of the system, it means that an anti-oxidant effect is formed. […]"}, "[2]": {"system": "mice with alcohol-induced liver injury", "assay": "Liver weight / body weight ratio (liver enlargement) in mice fed alcohol liquid diet", "conditions": "p<0.05", "procedure": "(§1) In the design of this study, male mice of C57BL/6J strain are eight weeks old and are pre-bred for two weeks before starting the experiment to allow the animals to adapt to the environment, and observe whether the animals are abnormal daily. Raising at a relative humidity of 60%, 23±1° C., 12-hour light cycle (8:00-20:00), unlimited feed and water for rodents. The establishment and experimental grouping of liver injury and fatigue model animals. […] The test items of a concentration of lipid in blood are total cholesterol (TC) and triglyceride (TG) in serum, wherein a concentration of the total cholesterol is analyzed by using commercially available biochemical reagents (BXC 0261, Fortress), and a concentration of the biochemical reagents (BXC 0271, Fortress) is analyzed by triglyceride. The test items of a concentration of liver lipid are total cholesterol and triglycerides, wherein a concentration of the total cholesterol of the liver lipid is analyzed by using commercially available biochemical reagents (BXC 0261, Fortress), and a concentration of the biochemical reagents (BXC 0271, Fortress) of the liver lipid is analyzed by triglyceride. A production of lipid peroxide malondialdehyde (MDA) is determined by way of thiobarbituric acid (thiobarbituric acid) color method, wherein the more the product of lipid peroxide malondialdehyde is, the higher the absorbance value produces. […]"}, "[3]": {"system": "mice with alcohol-induced liver injury", "assay": "Serum liver function index (AST, ALT) by biochemical automatic analyzer", "conditions": "FIG. 2, extract: TL and TH group, RA group, p<0.05 vs ALD", "procedure": "as §1"}, "[4]": {"system": "Mice with Alcoholic Liver Injury", "assay": "Serum total cholesterol and triglyceride", "procedure": "(§2) In the design of this study, male mice of C57BL/6J strain are eight weeks old and are pre-bred for two weeks before starting the experiment to allow the animals to adapt to the environment, and observe whether the animals are abnormal daily. Raising at a relative humidity of 60%, 23±1° C., 12-hour light cycle (8:00-20:00), unlimited feed and water for rodents. The establishment and experimental grouping of liver injury and fatigue model animals. The trichodesma khasianum […] extract powders explore the effect of alcohol liquid diet on fatty liver and liver damage in mice, male mice of the C57BL/6J strain of 8 weeks old, are given special diet for experimental animals (Laboratory Rodent Diet) during the 2 week adaptation period. After one week, the body weight reached 20g, and the group is tested and started to be fed with standard alcoholic liquid model feed (Lieber-DeCarli Regular Control (DYET#710027)) or ethanol feed (Ethanol Diet (DYET#710260)), food and water are not restricted. The test is carried out for six weeks. The test substance is given a fixed daily dose by tube feeding. The dosage conversion refers to the US Food and Drug Administration announcement (US FDA, 2005), based on a 60 kg adult, the recommended daily body weight per kg 12.3 times the intake is the dose for mice. The animal experiment is divided into five groups, and each group has 8 mice, so there are […] mice, including normal group (NOR group), alcohol group (ALD group), low dose of the trichodesma khasianum […] extract powder (TL group) and high dose group of the trichodesma khasianum […] extract powder (TH group), and rosmarinic acid group (RA group). […] The test items of a concentration of lipid in blood are total cholesterol (TC) and triglyceride (TG) in serum, wherein a concentration of the total cholesterol is analyzed by using commercially available biochemical reagents (BXC 0261, Fortress), and a concentration of the biochemical reagents (BXC 0271, Fortress) is analyzed by triglyceride. The test items of a concentration of liver lipid are total cholesterol and triglycerides, wherein a concentration of the total cholesterol of the liver lipid is analyzed by using commercially available biochemical reagents (BXC 0261, Fortress), and a concentration of the biochemical reagents (BXC 0271, Fortress) of the liver lipid is analyzed by triglyceride. A production of lipid peroxide malondialdehyde (MDA) is determined by way of thiobarbituric acid (thiobarbituric acid) color method, wherein the more the product of lipid peroxide malondialdehyde is, the higher the absorbance value produces. Therefore, when the sample is capable of reducing the absorbance value of the system, it means that an anti-oxidant effect is formed. […]"}, "[5]": {"system": "Mice with Alcoholic Liver Injury", "assay": "Liver total cholesterol and triglyceride", "conditions": "RA group", "procedure": "as §2"}, "[6]": {"system": "Mice with Alcoholic Liver Injury", "assay": "Liver lipid peroxidation (MDA, thiobarbituric acid color method)", "conditions": "RA group", "procedure": "as §1"}, "[7]": {"system": "mice with alcohol-induced liver injury", "assay": "Liver pathological section, H&E stain", "conditions": "FIG. 3, extract: TL and TH group, RA group", "procedure": "as §1"}, "[8]": {"conditions": "RA group, alcohol liquid diet six weeks"}, "[9]": {"conditions": "extract high dose (TH group) or RA group"}, "[10]": {"conditions": "extract: TL and TH group, p<0.05"}},
  "note": "Marks after values point to notes of the source that are not given here.",
  "data": [
    {"smiles": "O=C(/C=C/c1ccc(O)c(O)c1)O[C@H](Cc1ccc(O)c(O)c1)C(=O)O", "note": "[RA, rosmarinic acid]", "values": [
      {"measurement": "body weight compared with the alcohol group", "setting": "[1]; 0 to 6 weeks, alcohol feed diet, p>0.05", "result": "no significant difference"},
      {"measurement": "Body weight", "setting": "[1]; Day 0", "result": "22.3 ± 0.7^a g"},
      {"measurement": "Body weight", "setting": "[1]; Day 7", "result": "21.7 ± 0.7^a g"},
      {"measurement": "Body weight", "setting": "[1]; Day 14", "result": "20.6 ± 0.5^a g"},
      {"measurement": "Body weight", "setting": "[1]; Day 21", "result": "23.3 ± 0.8^a g"},
      {"measurement": "Body weight", "setting": "[1]; Day 28", "result": "22.3 ± 0.7^a g"},
      {"measurement": "Body weight", "setting": "[1]; Day 35", "result": "21.6 ± 0.8^a g"},
      {"measurement": "Body weight", "setting": "[1]; Day 42", "result": "24.6 ± 1.0^a g"},
      {"measurement": "ratio of liver weight/body weight compared with ALD group", "setting": "[2]; FIG. 1", "result": "significantly lower"},
      {"measurement": "alcohol-induced liver enlargement in mice", "setting": "[2]; extract: TL and TH group, RA group", "result": "significantly reduces"},
      {"measurement": "serum alanine transaminase (ALT/GPT) activity induced by alcohol diet", "setting": "[3]", "result": "significantly reduced"},
      {"measurement": "serum alanine transaminase (ALT/GPT) activity induced by alcohol diet", "setting": "[3]; listed as rosmarinic acid", "result": "significantly reduce"},
      {"measurement": "Serum total cholesterol", "setting": "[4]; [8]", "result": "105.9 ± 9.97 ^ab mg/dL"},
      {"measurement": "Serum triglyceride", "setting": "[4]; [8]", "result": "107.7 ± 23.5 ^b mg/dL"},
      {"measurement": "serum total cholesterol raised by alcohol diet, compared with ALD group", "setting": "[4]; [9]", "result": "significantly reduce"},
      {"measurement": "serum triglyceride raised by alcohol diet, compared with ALD group", "setting": "[4]; [9]", "result": "significantly reduce"},
      {"measurement": "Liver total cholesterol", "setting": "[5]; alcohol liquid diet six weeks", "result": "6.3 ± 0.56 ^b mg/g"},
      {"measurement": "Liver triglyceride", "setting": "[5]; alcohol liquid diet six weeks", "result": "8.4 ± 1.68 ^bc mg/g"},
      {"measurement": "liver cholesterol concentration in mice", "setting": "[5]; [10]", "result": "significantly reduce"},
      {"measurement": "liver triglyceride concentration in mice", "setting": "[5]; [10]", "result": "significantly reduce"},
      {"measurement": "production of liver lipid peroxides induced by alcohol diet", "setting": "[6]; extract: TH group, no significant difference (p>0.05)", "result": "tendency to reduce"},
      {"measurement": "MDA", "setting": "[6]; liver, alcohol liquid diet six weeks", "result": "5.00 ± 0.90 ^ab mM/g"},
      {"measurement": "liver pathological examination (H&E section)", "setting": "[7]", "result": "only a few fat vacuoles and macrophage infiltration around the central vein"},
      {"measurement": "liver pathological examination (H&E section)", "setting": "[7]; listed as rosmarinic acid", "result": "improves the effects of alcoholic fatty liver and cell damage"}
    ]}
  ]
}
